Measurements published in PMC7995547, “ω‐Imidazolyl‐alkyl derivatives as new preclinical drug candidates for treating non‐alcoholic steatohepatitis” (Physiological Reports, 2021).

Tested on: male CD/Crl:CD(SD) rats
Experiment: Acute toxicity study, single peroral application, 14‐day observation
Type: in vivo
Settings: for Ataxia / Chromodacryorrhea / Dyspnoea / Inhibition of body weight gain / Mean body weight gain, After 7 d / Mean body weight, After 7 d / Mortality within 6 h / Mortality within 7 h / Mortality within 14 h / Mortality within 24 h / Necropsy findings / Piloerection / Ptosis / Reduced motility / Reduced muscle tone / Mean body weight gain, End / Mean body weight, End / Mean body weight, Start: p.o., males, n = 5; for Mean body weight gain, End / Mean body weight, End: 14‐day observation; for Mean body weight, Start: before administration
Method: In total, 90 male CD®/Crl:CD(SD) rats from Charles River Laboratories, Deutschland GmbH, were used after randomization. Five rats were selected for each concentration of the corresponding experimental substance. […] In addition, a control group was formed with five rats receiving only the HPMC gel.
Feeding was stopped approximately 16 h before the start of test substance application, whereas tap water continued to be available ad libitum. Granulated structural wood was used as bedding material in the cages; the material was changed and the cages were cleaned twice a week. […] The rooms were illuminated (approximately 150 lux from a ceiling height of approximately 1.50 m) and darkened for 12 h in turns.
Each animal was kept under observation, so that any behavior deviating from the norm could be systematically recorded. Observations were made before the peroral application of the respective active substance, immediately after, and 5, 15, 30, and 60 min and 3, 6, and 24 h after the start of application. […] We focused on the changes in the skin and fur, the eyes and mucous membranes, respiration, circulation, the autonomous and central nervous systems, somatomotor activity, and behavior patterns. They were also observed for possible tremors, convulsions, salivation, diarrhea, lethargy, sleep, and coma. Mortality checks were performed at least once a day to minimize the loss of animals during the study. The time of death was recorded as accurately as possible. Individual body weights were recorded before the administration of experimental substances and, subsequently, at weekly intervals, until the end of the study and at death. Weight changes were calculated when survival exceeded 1 day.
At the end of the experiments, all surviving animals were sacrificed, dissected, and examined macroscopically. All notable pathological changes were recorded. A microscopic examination of all organs showing obvious lesions was performed on animals that survived for 24 h or longer. Autopsy and macroscopic inspection of prematurely deceased animals were performed as soon as possible after death.

**Q.** What does the source list for `CCCCCCCCCCCCn1ccnc1` [I‐an, 1‐imidazolyldodecane]?
**A.** Ataxia (10 mg/kg b.w.): None; Chromodacryorrhea (10 mg/kg b.w.): None; Dyspnoea (10 mg/kg b.w.): None; Inhibition of body weight gain (10 mg/kg b.w.): None; Mean body weight gain, After 7 d (10 mg/kg b.w.): +24.4%; Mean body weight, After 7 d (10 mg/kg b.w.): 293.2 g; Mortality within 6 h (10 mg/kg b.w.): 0; Mortality within 7 h (10 mg/kg b.w.): 0; Mortality within 14 h (10 mg/kg b.w.): 0; Mortality within 24 h (10 mg/kg b.w.): 0; Necropsy findings (10 mg/kg b.w.): None; Piloerection (10 mg/kg b.w.): None; Ptosis (10 mg/kg b.w.): None; Reduced motility (10 mg/kg b.w.): None; Reduced muscle tone (10 mg/kg b.w.): None; Mean body weight gain, End (10 mg/kg b.w.): +39.4%; Mean body weight, End (10 mg/kg b.w.): 328.4 g; Mean body weight, Start (10 mg/kg b.w.): 235.6 g; Ataxia (50 mg/kg b.w.): None; Chromodacryorrhea (50 mg/kg b.w.): None; Dyspnoea (50 mg/kg b.w.): None; Inhibition of body weight gain (50 mg/kg b.w.): None; Mean body weight gain, After 7 d (50 mg/kg b.w.): +26.6%; Mean body weight, After 7 d (50 mg/kg b.w.): 296.4 g; Mortality within 6 h (50 mg/kg b.w.): 0; Mortality within 7 h (50 mg/kg b.w.): 0; Mortality within 14 h (50 mg/kg b.w.): 0; Mortality within 24 h (50 mg/kg b.w.): 0; Necropsy findings (50 mg/kg b.w.): None; Piloerection (50 mg/kg b.w.): None; Ptosis (50 mg/kg b.w.): None; Reduced motility (50 mg/kg b.w.): None; Reduced muscle tone (50 mg/kg b.w.): None; Mean body weight gain, End (50 mg/kg b.w.): +40.6%; Mean body weight, End (50 mg/kg b.w.): 329.2 g; Mean body weight, Start (50 mg/kg b.w.): 234.2 g; Ataxia (100 mg/kg b.w.): None; Chromodacryorrhea (100 mg/kg b.w.): None; Dyspnoea (100 mg/kg b.w.): None; Inhibition of body weight gain (100 mg/kg b.w.): None; Mean body weight gain, After 7 d (100 mg/kg b.w.): +22.0%; Mean body weight, After 7 d (100 mg/kg b.w.): 283.6 g; Mortality within 6 h (100 mg/kg b.w.): 0; Mortality within 7 h (100 mg/kg b.w.): 0; Mortality within 14 h (100 mg/kg b.w.): 0; Mortality within 24 h (100 mg/kg b.w.): 0; Necropsy findings (100 mg/kg b.w.): None; Piloerection (100 mg/kg b.w.): None; Ptosis (100 mg/kg b.w.): None; Reduced motility (100 mg/kg b.w.): None; Reduced muscle tone (100 mg/kg b.w.): None; Mean body weight gain, End (100 mg/kg b.w.): +34.2%; Mean body weight, End (100 mg/kg b.w.): 311.8 g; Mean body weight, Start (100 mg/kg b.w.): 232.4 g; Ataxia (250 mg/kg b.w.): None; Chromodacryorrhea (250 mg/kg b.w.): None; Dyspnoea (250 mg/kg b.w.): None; Inhibition of body weight gain (250 mg/kg b.w.): None; Mean body weight gain, After 7 d (250 mg/kg b.w.): +19.4%; Mean body weight, After 7 d (250 mg/kg b.w.): 266.2 g; Mortality within 6 h (250 mg/kg b.w.): 0; Mortality within 7 h (250 mg/kg b.w.): 0; Mortality within 14 h (250 mg/kg b.w.): 0; Mortality within 24 h (250 mg/kg b.w.): 0; Necropsy findings (250 mg/kg b.w.): None; Piloerection (250 mg/kg b.w.): None; Ptosis (250 mg/kg b.w.): None; Reduced motility (250 mg/kg b.w.): None; Reduced muscle tone (250 mg/kg b.w.): None; Mean body weight gain, End (250 mg/kg b.w.): +32.7%; Mean body weight, End (250 mg/kg b.w.): 296.0 g; Mean body weight, Start (250 mg/kg b.w.): 223.0 g; Toxic signs (250 mg/kg bw): None; Time of premature death (500 mg/kg b.w.): 6 days; Ataxia (500 mg/kg b.w.): None; Chromodacryorrhea (500 mg/kg b.w.): None; Dyspnoea (500 mg/kg b.w.): None; Inhibition of body weight gain (500 mg/kg b.w.): None; Mean body weight gain, After 7 d (500 mg/kg b.w.): +21.8%; Mean body weight, After 7 d (500 mg/kg b.w.): 288.7 g; Mortality within 6 h (500 mg/kg b.w.): 0; Mortality within 7 h (500 mg/kg b.w.): 2; Mortality within 14 h (500 mg/kg b.w.): 2; Mortality within 24 h (500 mg/kg b.w.): 0; Necropsy findings (500 mg/kg b.w.): None; Piloerection (500 mg/kg b.w.): None; Ptosis (500 mg/kg b.w.): None; Reduced motility (500 mg/kg b.w.): None; Reduced muscle tone (500 mg/kg b.w.): None; Mean body weight gain, End (500 mg/kg b.w.): +38.4%; Mean body weight, End (500 mg/kg b.w.): 328.0 g; Mean body weight, Start (500 mg/kg b.w.): 237.0 g; Toxic signs (500 mg/kg bw): Mortality; Time of premature death (1000 mg/kg b.w.): 5 days; Ataxia (1000 mg/kg b.w.): None; Chromodacryorrhea (1000 mg/kg b.w.): None; Dyspnoea (1000 mg/kg b.w.): None; Inhibition of body weight gain (1000 mg/kg b.w.): None; Mean body weight gain, After 7 d (1000 mg/kg b.w.): +15.0%; Mean body weight, After 7 d (1000 mg/kg b.w.): 270.3 g; Mortality within 6 h (1000 mg/kg b.w.): 0; Mortality within 7 h (1000 mg/kg b.w.): 1; Mortality within 14 h (1000 mg/kg b.w.): 1; Mortality within 24 h (1000 mg/kg b.w.): 0; Necropsy findings (1000 mg/kg b.w.): None; Piloerection (1000 mg/kg b.w.): None; Ptosis (1000 mg/kg b.w.): None; Reduced motility (1000 mg/kg b.w.): None; Reduced muscle tone (1000 mg/kg b.w.): None; Mean body weight gain, End (1000 mg/kg b.w.): +36.2%; Mean body weight, End (1000 mg/kg b.w.): 320.0 g; Mean body weight, Start (1000 mg/kg b.w.): 235.0 g; Toxic signs (1000 mg/kg bw): Mortality; Premature deaths in the acute toxicity study (all dose groups, 30 rats per substance): three; Macroscopic necropsy findings (all doses): None; Lowest lethal dose (rats, single p.o. dose): 500 mg/kg bw; No Observed Adverse Effect Level (rats, single p.o. dose): 250 mg/kg bw; LD50(14 d) (rats, single p.o. dose, 14 days): >1000 mg/kg bw
